Test results: PubChem BioAssay AID1259407 (Chemical Carcinogenesis Research Information System (CCRIS), 2018)
Active and inactive are the calls of the source. How the calls were made is not given here.

Test system: CCRIS mutagenicity, Ames/micronucleus/aberration tests
Experiment: CCRIS mutagenicity studies
[1] = Test System: AMES SALMONELLA TYPHIMURIUM, Strain/Indicator: TA97, Metabolic Activation: NONE, Method: PREINCUBATION
[2] = Test System: AMES SALMONELLA TYPHIMURIUM, Strain/Indicator: TA98, Metabolic Activation: NONE, Method: PREINCUBATION
[3] = Test System: AMES SALMONELLA TYPHIMURIUM, Strain/Indicator: TA100, Metabolic Activation: NONE, Method: PREINCUBATION
[4] = Test System: AMES SALMONELLA TYPHIMURIUM, Strain/Indicator: TA1535, Metabolic Activation: NONE, Method: PREINCUBATION

For `CCCCCCC[CH2][Sn]([CH2]CCCCCCC)([S]CC(=O)OCCCCCC(C)C)[S]CC(=O)OCCCCCC(C)C`, the mutagenic call (Test System: AMES SALMONELLA TYPHIMURIUM, Strain/Indicator: TA97, Metabolic Activation: HAMSTER, LIVER, S-9, AROCLOR 1254 (10 OR 30%), Method: PREINCUBATION) was “inactive; negative”, the mutagenic call [1] was “inactive; negative” and the mutagenic call (Test System: AMES SALMONELLA TYPHIMURIUM, Strain/Indicator: TA97, Metabolic Activation: RAT, LIVER, S-9, AROCLOR 1254 (10 OR 30%), Method: PREINCUBATION) was “inactive; negative”. For the same compound, the mutagenic call (Test System: AMES SALMONELLA TYPHIMURIUM, Strain/Indicator: TA98, Metabolic Activation: HAMSTER, LIVER, S-9, AROCLOR 1254 (10 OR 30%), Method: PREINCUBATION) was “inactive; negative”, the mutagenic call [2] was “inactive; negative” and the mutagenic call (Test System: AMES SALMONELLA TYPHIMURIUM, Strain/Indicator: TA98, Metabolic Activation: RAT, LIVER, S-9, AROCLOR 1254 (10 OR 30%), Method: PREINCUBATION) was “inactive; negative”. The mutagenic call (Test System: AMES SALMONELLA TYPHIMURIUM, Strain/Indicator: TA100, Metabolic Activation: HAMSTER, LIVER, S-9, AROCLOR 1254 (10 OR 30%), Method: PREINCUBATION) was “inactive; negative”, the mutagenic call [3] was “active; positive” and the mutagenic call (Test System: AMES SALMONELLA TYPHIMURIUM, Strain/Indicator: TA100, Metabolic Activation: RAT, LIVER, S-9, AROCLOR 1254 (10 OR 30%), Method: PREINCUBATION) was “inactive; negative”. The mutagenic call (Test System: AMES SALMONELLA TYPHIMURIUM, Strain/Indicator: TA1535, Metabolic Activation: HAMSTER, LIVER, S-9, AROCLOR 1254 (10 OR 30%), Method: PREINCUBATION) was “inactive; negative”, the mutagenic call [4] was “inactive; negative” and the mutagenic call (Test System: AMES SALMONELLA TYPHIMURIUM, Strain/Indicator: TA1535, Metabolic Activation: RAT, LIVER, S-9, AROCLOR 1254 (10 OR 30%), Method: PREINCUBATION) was “inactive; negative”.

`NCCNC(=O)c1ccc(Cl)cn1` was tested, and the mutagenic call [1] was “inactive; negative”, the mutagenic call (Test System: AMES SALMONELLA TYPHIMURIUM, Strain/Indicator: TA97, Metabolic Activation: NONE, Method: STANDARD PLATE) was “inactive; negative” and the mutagenic call (Test System: AMES SALMONELLA TYPHIMURIUM, Strain/Indicator: TA97, Metabolic Activation: RAT, LIVER, S-9, PHENOBARBITAL AND BETA-NAPHTHOFLAVONE, Method: PREINCUBATION) was “inactive; negative”. For the same compound, the mutagenic call (Test System: AMES SALMONELLA TYPHIMURIUM, Strain/Indicator: TA97, Metabolic Activation: RAT, LIVER, S-9, PHENOBARBITAL AND BETA-NAPHTHOFLAVONE, Method: STANDARD PLATE) was “inactive; negative”, the mutagenic call [2] was “inactive; negative” and the mutagenic call (Test System: AMES SALMONELLA TYPHIMURIUM, Strain/Indicator: TA98, Metabolic Activation: NONE, Method: STANDARD PLATE) was “inactive; negative”. For the same compound, the mutagenic call (Test System: AMES SALMONELLA TYPHIMURIUM, Strain/Indicator: TA98, Metabolic Activation: RAT, LIVER, S-9, PHENOBARBITAL AND BETA-NAPHTHOFLAVONE, Method: PREINCUBATION) was “inactive; negative”, the mutagenic call (Test System: AMES SALMONELLA TYPHIMURIUM, Strain/Indicator: TA98, Metabolic Activation: RAT, LIVER, S-9, PHENOBARBITAL AND BETA-NAPHTHOFLAVONE, Method: STANDARD PLATE) was “inactive; negative” and the mutagenic call [3] was “inactive; negative”. The mutagenic call (Test System: AMES SALMONELLA TYPHIMURIUM, Strain/Indicator: TA100, Metabolic Activation: NONE, Method: STANDARD PLATE) was “inactive; negative”, the mutagenic call (Test System: AMES SALMONELLA TYPHIMURIUM, Strain/Indicator: TA100, Metabolic Activation: RAT, LIVER, S-9, PHENOBARBITAL AND BETA-NAPHTHOFLAVONE, Method: PREINCUBATION) was “inactive; negative” and the mutagenic call (Test System: AMES SALMONELLA TYPHIMURIUM, Strain/Indicator: TA100, Metabolic Activation: RAT, LIVER, S-9, PHENOBARBITAL AND BETA-NAPHTHOFLAVONE, Method: STANDARD PLATE) was “inactive; negative”. The mutagenic call (Test System: AMES SALMONELLA TYPHIMURIUM, Strain/Indicator: TA102, Metabolic Activation: NONE, Method: PREINCUBATION) was “inactive; negative”, the mutagenic call (Test System: AMES SALMONELLA TYPHIMURIUM, Strain/Indicator: TA102, Metabolic Activation: NONE, Method: STANDARD PLATE) was “inactive; negative” and the mutagenic call (Test System: AMES SALMONELLA TYPHIMURIUM, Strain/Indicator: TA102, Metabolic Activation: RAT, LIVER, S-9, PHENOBARBITAL AND BETA-NAPHTHOFLAVONE, Method: PREINCUBATION) was “inactive; negative”. For the same compound, the mutagenic call (Test System: AMES SALMONELLA TYPHIMURIUM, Strain/Indicator: TA102, Metabolic Activation: RAT, LIVER, S-9, PHENOBARBITAL AND BETA-NAPHTHOFLAVONE, Method: STANDARD PLATE) was “inactive; negative”, the mutagenic call [4] was “inactive; negative” and the mutagenic call (Test System: AMES SALMONELLA TYPHIMURIUM, Strain/Indicator: TA1535, Metabolic Activation: NONE, Method: STANDARD PLATE) was “inactive; negative”. For the same compound, the mutagenic call (Test System: AMES SALMONELLA TYPHIMURIUM, Strain/Indicator: TA1535, Metabolic Activation: RAT, LIVER, S-9, PHENOBARBITAL AND BETA-NAPHTHOFLAVONE, Method: PREINCUBATION) was “inactive; negative”, the mutagenic call (Test System: AMES SALMONELLA TYPHIMURIUM, Strain/Indicator: TA1535, Metabolic Activation: RAT, LIVER, S-9, PHENOBARBITAL AND BETA-NAPHTHOFLAVONE, Method: STANDARD PLATE) was “inactive; negative” and the mutagenic call (Test System: AMES SALMONELLA TYPHIMURIUM, Strain/Indicator: TA1537, Metabolic Activation: NONE, Method: PREINCUBATION) was “inactive; negative”. For the same compound, the mutagenic call (Test System: AMES SALMONELLA TYPHIMURIUM, Strain/Indicator: TA1537, Metabolic Activation: NONE, Method: STANDARD PLATE) was “inactive; negative”, the mutagenic call (Test System: AMES SALMONELLA TYPHIMURIUM, Strain/Indicator: TA1537, Metabolic Activation: RAT, LIVER, S-9, PHENOBARBITAL AND BETA-NAPHTHOFLAVONE, Method: PREINCUBATION) was “inactive; negative” and the mutagenic call (Test System: AMES SALMONELLA TYPHIMURIUM, Strain/Indicator: TA1537, Metabolic Activation: RAT, LIVER, S-9, PHENOBARBITAL AND BETA-NAPHTHOFLAVONE, Method: STANDARD PLATE) was “inactive; negative”. For the same compound, the mutagenic call (Test System: AMES SALMONELLA TYPHIMURIUM, Strain/Indicator: TA1538, Metabolic Activation: NONE, Method: PREINCUBATION) was “inactive; negative”, the mutagenic call (Test System: AMES SALMONELLA TYPHIMURIUM, Strain/Indicator: TA1538, Metabolic Activation: NONE, Method: STANDARD PLATE) was “inactive; negative” and the mutagenic call (Test System: AMES SALMONELLA TYPHIMURIUM, Strain/Indicator: TA1538, Metabolic Activation: RAT, LIVER, S-9, PHENOBARBITAL AND BETA-NAPHTHOFLAVONE, Method: PREINCUBATION) was “inactive; negative”. For the same compound, the mutagenic call (Test System: AMES SALMONELLA TYPHIMURIUM, Strain/Indicator: TA1538, Metabolic Activation: RAT, LIVER, S-9, PHENOBARBITAL AND BETA-NAPHTHOFLAVONE, Method: STANDARD PLATE) was “inactive; negative”, the mutagenic call (Test System: CHINESE HAMSTER V-79, Strain/Indicator: V-79 (HPRT)/6-THIOGUANINE, Metabolic Activation: NONE) was “inactive; negative” and the mutagenic call (Test System: CHINESE HAMSTER V-79, Strain/Indicator: V-79 (HPRT)/6-THIOGUANINE, Metabolic Activation: RAT, LIVER, S-9, AROCLOR 1254) was “inactive; negative”. The mutagenic call (Test System: UDS RAT HEPATOCYTES, Strain/Indicator: THY INCORP, Metabolic Activation: NONE, Method: AUTORADIOGRAPHY) was “inactive; negative”.
